The values below come from patent publication US12545673B2, “Imidazopyridine derivative and pharmaceutical composition comprising same as active ingredient” (TSD LIFE SCIENCES CO., LTD., priority 2019, dated 2026).

One assay deals with MLK1 (Homo sapiens (Human), UniProt P80192). Kind of assay: Evaluation of inhibitory activity of enzyme units, MLK1 ([γ-33P]-ATP filter assay). The class given is biochemical.
For assay [1], the system named is acute myeloid leukemia cell line U937. Kind of assay: Cancer cell proliferation inhibitory activity evaluation 2 (CCK-8), U937. The class given is cell-based. As to conditions: Homo sapiens, read-out: Cancer cell proliferation inhibitory activity U937. The protocol: (§1) In order to identify whether the compounds have anticancer activity, the acute myeloid leukemia cell line U937, the acute lymphoblastic leukemia cell line Jurkat, the gastric cancer cell lines AGS, […], and the human lung cancer cell line A549 were used. The cell line was cultured using RPMI-1640 medium (U937, Jurkat, AGS, A549) or DMEM (Hs746T) medium containing 10% fetal bovine serum. Welgene products were used as the medium, and hyclone products were used for fetal bovine serum, and 1% of antibiotics for cell culture from Gibco were used as the culture medium.

Assay [2] concerns acute lymphoblastic leukemia cell line Jurkat. The assay is described as follows: Cancer cell proliferation inhibitory activity evaluation 2 (CCK-8), Jurkat. In kind it is cell-based. Conditions: Homo sapiens. The protocol: as §1
Assay [3] deals with gastric cancer cell line Hs746T. Kind of assay: Cancer cell proliferation inhibitory activity evaluation 2 (CCK-8), Hs746T. In kind it is cell-based. As to conditions: Homo sapiens. As to the method:
as §1

Assay [4] deals with human lung cancer cell line A549. Kind of assay: Cancer cell proliferation inhibitory activity evaluation 2 (CCK-8), A549. The class given is cell-based. The protocol: as §1
The target in a further assay is MLK3 (Homo sapiens (Human), UniProt Q16584). The assay is described as follows: Evaluation of inhibitory activity of enzyme units, MLK3 ([γ-33P]-ATP filter assay). As to conditions: read-out: IC50(nM) MLK3.
MLK3, sequence (Q16584 whole entry, looked up): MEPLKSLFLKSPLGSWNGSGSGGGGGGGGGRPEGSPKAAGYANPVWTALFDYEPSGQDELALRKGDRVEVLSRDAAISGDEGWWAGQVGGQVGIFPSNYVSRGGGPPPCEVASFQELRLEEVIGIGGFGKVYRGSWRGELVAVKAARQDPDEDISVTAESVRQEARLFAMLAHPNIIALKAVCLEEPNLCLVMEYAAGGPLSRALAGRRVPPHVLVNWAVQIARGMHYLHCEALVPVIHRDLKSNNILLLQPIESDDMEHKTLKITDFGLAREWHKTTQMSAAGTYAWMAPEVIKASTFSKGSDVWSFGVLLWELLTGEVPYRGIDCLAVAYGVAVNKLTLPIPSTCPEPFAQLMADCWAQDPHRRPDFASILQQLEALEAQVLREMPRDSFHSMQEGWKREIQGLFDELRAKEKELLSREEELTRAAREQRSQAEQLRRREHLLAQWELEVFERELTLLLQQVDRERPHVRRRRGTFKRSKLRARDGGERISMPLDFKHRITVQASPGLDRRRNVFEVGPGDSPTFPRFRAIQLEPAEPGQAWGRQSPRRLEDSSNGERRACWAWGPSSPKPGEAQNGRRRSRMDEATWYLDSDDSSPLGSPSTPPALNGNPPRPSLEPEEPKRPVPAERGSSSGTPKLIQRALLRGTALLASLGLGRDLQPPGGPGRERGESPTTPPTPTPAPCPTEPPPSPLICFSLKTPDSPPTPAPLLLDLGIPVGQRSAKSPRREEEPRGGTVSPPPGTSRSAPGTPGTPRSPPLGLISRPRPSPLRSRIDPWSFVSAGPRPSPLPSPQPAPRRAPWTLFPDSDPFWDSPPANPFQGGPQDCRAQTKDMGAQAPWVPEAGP
Assay [5] relates to gastric cancer cell line AGS. Kind of assay: Cancer cell proliferation inhibitory activity evaluation 2 (CCK-8), AGS. The class given is cell-based. Conditions: Homo sapiens, read-out: Cancer cell proliferation inhibitory activity AGS. As to the method:
as §1

Where [6] appears, read: U-937, 10 μM, 72 hours, CCK-8 (Table 3).
The mark [7] stands for this setting: 10 μM, 72 hours, CCK-8, read-out: Cancer cell proliferation inhibitory activity Jurkat.
[8] abbreviates: 10 μM, 72 hours, CCK-8, read-out: Cancer cell proliferation inhibitory activity Hs746T.
Where [9] appears, read: A549, 10 μM, 72 hours, CCK-8, read-out: Cancer cell proliferation inhibitory activity A549.
Setting [10] is: 72 h, read-out: Cancer cell proliferation inhibitory activity Jurkat.
The mark [11] stands for this setting: 72 h, read-out: Cancer cell proliferation inhibitory activity Hs746T.
Setting [12] is: A549, 72 h, read-out: Cancer cell proliferation inhibitory activity A549.

Where two headings read alike, the source gives them in different places. Bounds are passed on as bounds.

MLK1, sequence (P80192 whole entry, looked up): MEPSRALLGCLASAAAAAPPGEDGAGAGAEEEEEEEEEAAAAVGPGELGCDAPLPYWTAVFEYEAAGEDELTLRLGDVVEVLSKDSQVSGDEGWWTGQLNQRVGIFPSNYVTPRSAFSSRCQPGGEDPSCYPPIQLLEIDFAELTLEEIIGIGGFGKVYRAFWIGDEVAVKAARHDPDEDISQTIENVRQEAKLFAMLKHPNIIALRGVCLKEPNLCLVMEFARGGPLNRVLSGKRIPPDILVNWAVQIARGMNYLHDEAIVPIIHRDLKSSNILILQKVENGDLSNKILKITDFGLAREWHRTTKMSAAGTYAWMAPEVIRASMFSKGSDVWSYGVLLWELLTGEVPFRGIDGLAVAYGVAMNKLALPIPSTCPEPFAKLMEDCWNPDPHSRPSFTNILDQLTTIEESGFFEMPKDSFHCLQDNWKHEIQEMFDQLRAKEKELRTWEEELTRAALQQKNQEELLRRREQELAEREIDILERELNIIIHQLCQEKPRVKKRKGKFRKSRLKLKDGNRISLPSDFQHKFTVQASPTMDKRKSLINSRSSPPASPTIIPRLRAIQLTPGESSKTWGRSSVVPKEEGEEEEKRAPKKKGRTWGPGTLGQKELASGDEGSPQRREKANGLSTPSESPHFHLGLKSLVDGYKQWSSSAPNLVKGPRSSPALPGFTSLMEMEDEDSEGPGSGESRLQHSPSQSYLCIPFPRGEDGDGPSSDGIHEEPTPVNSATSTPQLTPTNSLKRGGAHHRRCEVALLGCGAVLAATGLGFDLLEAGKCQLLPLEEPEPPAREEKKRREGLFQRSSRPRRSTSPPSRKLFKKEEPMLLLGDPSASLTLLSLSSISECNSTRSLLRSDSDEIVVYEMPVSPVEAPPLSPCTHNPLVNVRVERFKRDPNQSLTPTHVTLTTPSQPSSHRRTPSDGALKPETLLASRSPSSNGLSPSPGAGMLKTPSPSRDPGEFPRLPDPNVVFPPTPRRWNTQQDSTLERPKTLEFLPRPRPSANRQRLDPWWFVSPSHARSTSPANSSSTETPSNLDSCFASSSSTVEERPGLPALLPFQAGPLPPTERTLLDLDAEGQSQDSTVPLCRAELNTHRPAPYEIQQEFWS

One may read the IC50 as the concentration needed to halve the response being measured. With `CCS(=O)(=O)N1CC[C@H](Nc2c(Cl)cnc3[nH]c(-c4cc(C)n(-c5cc(NS(C)(=O)=O)ccc5C)c4C)nc23)C1` [Example 51, N-(3-(3-(6-chloro-7-(((S)-1-(ethylsulfonyl)pyrrolidine-3-yl)amino)-3H-imidazo[4,5-b]pyridine-2-yl)-2,5-dimethyl-1H-pyrrol-1-yl)-4-methylphenyl) methanesulfonamide], the values for the IC50 on MLK1 and at MLK3 were 53 nM and 330 nM, respectively. Besides, the inhibition at 10 µM in assay [1] (setting [6]) was > 50%; in assay [2] (setting [7]), > 50%; in assay [3] (setting [8]), > 50%; in assay [4] (setting [9]), 10 to 50%.
Consider `CCS(=O)(=O)N1CC[C@H](Nc2c(Cl)cnc3nc(-c4cc(C)n(-c5ccc(OCCN6CCOCC6)cc5)c4C)[nH]c23)C1` [Example 52, (S)-6-chloro-2-(2,5-dimethyl-1-(4-(2-morpholinoethoxy)phenyl)-1H-pyrrol-3-yl)-N-(1-(ethylsulfonyl)pyrrolidine-3-yl)-1H-imidazo[4,5-b]pyridine-7-amine], for which the IC50 came out at 87 nM against MLK1 and 324 nM at MLK3. For the same compound, the inhibition at 10 µM in assay [1] (setting [6]) is > 50%; in assay [2] (setting [7]), > 50%; in assay [3] (setting [8]), > 50%; in assay [4] (setting [9]) it was 10 to 50%.
In the case of `CCN(CC)CCNC(=O)c1ccc(-n2c(C)cc(-c3nc4ncc(Br)c(N[C@H]5CCN(S(=O)(=O)CC)C5)c4[nH]3)c2C)cc1` [Example 57, (S)-4-(3-(6-bromo-7-((1-(ethylsulfonyl)pyrrolidine-3-yl)amino)-1H-imidazo[4,5-b]pyridine-2-yl)-2,5-dimethyl-1H-pyrrol-1-yl)-N-(2-(diethylamino)ethyl)benzamide], the inhibition at 10 µM in assay [1] (U-937, 72 h) is > 50%; in assay [2] (setting [10]) it was > 50%; in assay [5] (72 h), > 50%; in assay [3] (setting [11]) it was > 50%; in assay [4] (setting [12]), > 50%. The IC50 at MLK3 was 97 nM.
Regarding `CCS(=O)(=O)N1CC[C@H](Nc2c(Br)cnc3[nH]c(-c4cc(C)n(-c5ccc(C(=O)O)cc5)c4C)nc23)C1` [Example 59, (S)-4-(3-(6-bromo-7-((1-(ethylsulfonyl)pyrrolidine-3-yl)amino)-3H-imidazo[4,5-b]pyridine-2-yl)-2,5-dimethyl-1H-pyrrol-1-yl)benzoic acid], the inhibition at 10 µM was 10 to 50% in assay [1] (U-937, 72 h); 10 to 50% in assay [2] (setting [10]); < 10% in assay [5] (72 h); 10 to 50% in assay [3] (setting [11]); < 10% in assay [4] (setting [12]). For the same compound, the IC50 on MLK3 was determined as 19 nM.
As for `CCS(=O)(=O)N1CC[C@H](Nc2c(Br)cnc3[nH]c(-c4cc(C)n(-c5cccc(C(=O)NCN(C)C)c5)c4C)nc23)C1` [Example 60, (S)-3-(3-(6-bromo-7-((1-(ethylsulfonyl)pyrrolidine-3-yl)amino)-3H-imidazo[4,5-b]pyridine-2-yl)-2,5-dimethyl-1H-pyrrol-1-yl)-N-((dimethylamino)methyl)benzamide], the inhibition at 10 µM in assay [1] (U-937, 72 h) is > 50%; in assay [2] (setting [10]) it was > 50%; in assay [5] (72 h), > 50%; in assay [3] (setting [11]), > 50%; in assay [4] (setting [12]), > 50%. Further, the IC50 on MLK3 was found to be 27 nM.
On to `CCS(=O)(=O)N1CC[C@H](Nc2c(Br)cnc3[nH]c(-c4cc(C)n(-c5cccc(C(=O)N(C)CCN(C)C)c5)c4C)nc23)C1` [Example 61, (S)-3-(3-(6-bromo-7-((1-(ethylsulfonyl)pyrrolidine-3-yl)amino)-3H-imidazo[4,5-b]pyridine-2-yl)-2,5-dimethyl-1H-pyrrol-1-yl)-N-(2-(dimethylamino)ethyl)-N-methylbenzamide], for which the figures for the IC50 at MLK1 and on MLK3 were 19 nM and 30 nM, respectively. Moreover, the inhibition at 10 µM in assay [1] (U-937, 72 h) is > 50%; in assay [2] (setting [10]), > 50%; in assay [5] (72 h), > 50%; in assay [3] (setting [11]) it was > 50%; in assay [4] (setting [12]), > 50%.
Consider `CCS(=O)(=O)N1CC[C@H](Nc2c(Br)cnc3nc(-c4cc(C)n(-c5cccc(NC(=O)CN(C)C)c5)c4C)[nH]c23)C1` [Example 64, (S)—N-(3-(3-(6-bromo-7-((1-(ethylsulfonyl)pyrrolidine-3-yl)amino)-1H-imidazo[4,5-b]pyridine-2-yl)-2,5-dimethyl-1H-pyrrol-1-yl)phenyl)-2-(dimethylamino) acetamide], for which the IC50 is 34 nM at MLK1 and 14 nM at MLK3. Also, the inhibition at 10 µM was > 50% in assay [1] (U-937, 72 h); > 50% in assay [2] (setting [10]); > 50% in assay [5] (72 h); > 50% in assay [3] (setting [11]); > 50% in assay [4] (setting [12]).
As to `CCS(=O)(=O)N1CC[C@H](Nc2c(Br)cnc3nc(-c4cc(C)n(-c5cccc(NC(=O)CN6CCN(C)CC6)c5)c4C)[nH]c23)C1` [Example 65], the IC50 turned out to be 42 nM on MLK1 and 26 nM on MLK3. Further, the inhibition at 10 µM is > 50% in assay [1] (U-937, 72 h); > 50% in assay [2] (setting [10]); > 50% in assay [5] (72 h); > 50% in assay [3] (setting [11]); < 10% in assay [4] (setting [12]).
With `CCS(=O)(=O)N1CC[C@H](Nc2c(Br)cnc3nc(-c4cc(C)n(-c5cccc(NC(=O)CN6CCOCC6)c5)c4C)[nH]c23)C1` [Example 66, (S)—N-(3-(3-(6-bromo-7-((1-(ethylsulfonyl)pyrrolidine-3-yl)amino)-1H-imidazo[4,5-b]pyridine-2-yl)-2,5-dimethyl-1H-pyrrol-1-yl)phenyl)-2-morpholinoacetamide], the IC50 is 22 nM against MLK1 and 17 nM at MLK3. For the same compound, the inhibition at 10 µM was 10 to 50% in assay [1] (U-937, 72 h); > 50% in assay [2] (setting [10]); > 50% in assay [5] (72 h); > 50% in assay [3] (setting [11]); 10 to 50% in assay [4] (setting [12]).
On to `CCS(=O)(=O)N1CC[C@H](Nc2c(Br)cnc3nc(-c4cc(C)n(-c5ccc(C(=O)N6CCN(C)CC6)cc5)c4C)[nH]c23)C1` [Example 67, (S)-(4-(3-(6-bromo-7-((1-(ethylsulfonyl)pyrrolidine-3-yl)amino)-1H-imidazo[4,5-b]pyridine-2-yl)-2,5-dimethyl-1H-pyrrol-1-yl)phenyl) (4-methylpiperazine-1-yl) methanone], for which the values for the IC50 at MLK1 and at MLK3 were 32 nM and 19 nM, respectively. Further, the inhibition at 10 µM in assay [1] (U-937, 72 h) was > 50%; in assay [2] (setting [10]) it was > 50%; in assay [5] (72 h), > 50%; in assay [3] (setting [11]), 10 to 50%; in assay [4] (setting [12]) it was 10 to 50%.
Consider `CCS(=O)(=O)N1CC[C@H](Nc2c(Br)cnc3nc(-c4cc(C)n(-c5cccc(C(=O)N6CCN(C)CC6)c5)c4C)[nH]c23)C1` [Example 68], for which the IC50 on MLK1 stood at 25 nM; on MLK3, 16 nM. Also, the inhibition at 10 µM was > 50% in assay [1] (U-937, 72 h); > 50% in assay [2] (setting [10]); > 50% in assay [5] (72 h); > 50% in assay [3] (setting [11]); > 50% in assay [4] (setting [12]).
For the compound `CCS(=O)(=O)N1CC[C@H](Nc2c(Br)cnc3[nH]c(-c4cc(C)n(-c5cccc(C(=O)NCCN6CCOCC6)c5)c4C)nc23)C1` [Example 69, (S)-3-(3-(6-bromo-7-((1-(ethylsulfonyl)pyrrolidine-3-yl)amino)-3H-imidazo[4,5-b]pyridine-2-yl)-2,5-dimethyl-1H-pyrrol-1-yl)-N-(2-morpholinoethyl)benzamide], the IC50 was determined as 22 nM against MLK1 and 13 nM on MLK3. Also, the inhibition at 10 µM was > 50% in assay [1] (U-937, 72 h); > 50% in assay [2] (setting [10]); > 50% in assay [5] (72 h); 10 to 50% in assay [3] (setting [11]); 10 to 50% in assay [4] (setting [12]).
Regarding `CCS(=O)(=O)N1CC[C@H](Nc2c(Br)cnc3[nH]c(-c4cc(C)n(-c5ccc(C(=O)NCCN6CCOCC6)cc5)c4C)nc23)C1` [Example 70, (S)-4-(3-(6-bromo-7-((1-(ethylsulfonyl)pyrrolidine-3-yl)amino)-3H-imidazo[4,5-b]pyridine-2-yl)-2,5-dimethyl-1H-pyrrol-1-yl)-N-(2-morpholinoethyl)benzamide], the IC50 was found to be 36 nM against MLK1 and 18 nM at MLK3. Moreover, the inhibition at 10 µM in assay [1] (setting [6]) was > 50%; in assay [2] (setting [7]) it was > 50%; in assay [5] (10 μM, 72 hours, CCK-8), > 50%; in assay [3] (setting [8]), 10 to 50%; in assay [4] (setting [9]) it was 10 to 50%.
